{"source": "patent US20210137903A1", "about": "“ANTI-ANDROGENS FOR THE TREATMENT OF PROSTRATE CANCER” (priority 2019, published 2021)", "key": {"[1]": {"experiment": "Single 240-mg dose pharmacokinetics in healthy subjects (earlier studies)", "assay_type": "in vivo, human", "source_text": "(§1) Apalutamide is a Biopharmaceutics Classification System Class II drug (highly permeable and poorly soluble). The commercialized formulation is a spray dried powder of amorphous apalutamide."}, "[2]": {"experiment": "Safety in healthy subjects (previous single-dose studies)", "assay_type": "in vivo", "source_text": "Healthy subjects are commonly selected for PK studies as they allow for assessments in the absence of confounding factors such as comorbid conditions and concomitant medications. In this study, only male subjects were enrolled as the target patient population for clinical use of apalutamide consists of male subjects with CRPC.\nThe potential risks to subjects in this study included exposure to study drugs, with a potential for AEs. […] Subjects were monitored for AEs throughout the study, and an expert investigator was chosen to conduct the study. In each treatment period, subjects were confined to the study center until completion of the 72-hour PK assessments on Day 4 and returned to the study center for additional assessments up to Day 8 after intake of the study drug. Subject's safety was monitored at regular intervals throughout the study by physical examination, laboratory safety assessments, ECG and vital signs."}, "[3]": {"system": "non-castrate hormone-sensitive and bicalutamide-resistant human prostate cancer xenograft models", "details": "cited from earlier work"}, "CRPC": {"system": "CRPC", "experiment": "Phase II clinical trial, apalutamide 240 mg continuous daily dosing in CRPC", "assay_type": "in vivo, human", "details": "for patients with 12-week PSA declines of >50% or more from baseline: 240 mg daily", "source_text": "The primary objective was to assess antitumor activity and PSA kinetics as defined by the Prostate Cancer Clinical Trials Working Group (PCWG2) criteria. […] The median time to PSA progression was not reached for the TN cohort during the preliminary 12-week period, and was 16 weeks in the PA cohort.\nThe median time to PSA progression was not reached in this observed time period."}, "high-risk nmCRPC": {"system": "high-risk nmCRPC", "experiment": "Phase 3 SPARTAN registration study, apalutamide 240 mg once daily vs placebo", "assay_type": "in vivo, human", "source_text": "This study was a randomized, double-blind, placebo-controlled, multicenter trial that evaluated apalutamide treatment in patients with high-risk nmCRPC. […] All patients continued to receive ongoing androgen-deprivation therapy (GnRHa or surgical castration)."}, "[4]": {"experiment": "Single-dose 14C-apalutamide absolute bioavailability and microtracer study", "set-up": "species or system human", "details": "in vivo"}, "[5]": {"experiment": "Example 1 relative bioavailability study: pharmacokinetics, whole tablets vs mixture in applesauce", "assay_type": "in vivo, human", "details": "n=10", "procedure": "This was a randomized, open-label, balanced, single dose, two-treatment, two-period, two-sequence, crossover relative bioavailability study.\nHealthy male subjects were randomly assigned to 1 of 2 treatment sequences by following the randomization scheme as given below.\nAll study drug were taken in the morning on Day 1 of each treatment period. […] For Treatment B, the study drug-applesauce mixture was prepared by a pharmaceutical technician or pharmacist. An additional 50 mL of water for either treatments was allowed if necessary. Study drug of Treatment B was be ingested within 5 minutes. Treatment A was be swallowed whole and not chewed, divided, dissolved, or crushed.\nAdditional PK parameters could be included if deemed appropriate.\nPharmacokinetic analysis was performed by or under the responsibility of the sponsor.\nPharmacokinetic and statistical analysis were done using Phoenix™ WinNonlin® (Tripos L.P.). Noncompartmental analysis was applied for the pharmacokinetic analysis. Furthermore, Microsoft Excel® (Microsoft, Redmond, Wash., United States), and SAS (SAS Institute Inc., Cary, N.C., US) were used.\nIf one of the PK parameters could not be determined for a given subject in 1 or more periods, the subject's data was not included in the statistical analysis of that particular PK parameter. The analysis was performed on log-transformed PK parameters.\nA mixed effect model that includes treatment, period, and treatment sequence as fixed effects, and subject as a random effect, was used to estimate the least squares means and intrasubject variance. Using these estimated least squares means and intrasubject variance, the point estimate and 90% CIs for the difference in means on a log scale between test and reference were constructed. The limits of the CIs was retransformed using antilogarithms to obtain 90% CIs for the geometric mean ratios of Cmax and AUC0-168 h of the test to reference formulation. A similar analysis was conducted for AUC0-72 h for supplemental purpose."}, "[6]": {"experiment": "Biopharmaceutics Classification System classification", "assay_type": "physicochemical", "details": "highly permeable and poorly soluble", "source_text": "as §1"}}, "note": "Read-outs that look alike come from different tables or passages of the source."}
{"smiles": "CNC(=O)c1ccc(N2C(=S)N(c3cnc(C#N)c(C(F)(F)F)c3)C(=O)C23CCC3)cc1F", "note": "[apalutamide, 4-[7-(6-cyano-5-trifluoromethylpyridin-3-yl)-8-oxo-6-thioxo-5,7-diazaspiro[3.4]oct-5-yl]-2-fluoro-N-methylbenzamide]", "values": [{"measurement": "Cmax lower with a high-fat meal compared to fasted", "setting": "[1]; fed vs fasted", "result": "approximately 16%"}, {"measurement": "extent of absorption based on AUC∞ under fed conditions", "setting": "[1]; fed vs fasted", "result": "remained unchanged"}, {"measurement": "bioavailability", "setting": "[1]; human, in vivo, oral, single dose 240 mg, read-out: absolute bioavailability", "result": "~100", "unit": "%"}, {"measurement": "Cmax", "setting": "[1]; human, plasma, oral, 240 mg, N=15, read-out: mean single dose plasma Cmax", "result": "~2400", "unit": "ng/mL"}, {"measurement": "half-life", "setting": "[1]; human, plasma, oral, 240 mg, human, read-out: half-life (converted)", "result": "~168", "unit": "h"}, {"measurement": "Cmax", "setting": "[1]; human, plasma, oral, 240 mg, read-out: mean Cmax from a similar study", "result": 2420, "unit": "ng/mL"}, {"measurement": "half-life", "setting": "[1]; human, plasma, oral, 240 mg, read-out: mean elimination half-life (t1/2) (converted)", "result": "~162", "unit": "h"}, {"measurement": "AUC(0-t)", "setting": "[1]; human, plasma, oral, 240 mg, N=15, read-out: AUC0-168 h from another bioavailability study", "result": 121, "unit": "µg·h/mL"}, {"measurement": "AUC", "setting": "[1]; human, plasma, oral, 240 mg, N=15, read-out: mean AUC28", "result": 225, "unit": "µg·h/mL"}, {"measurement": "Tmax", "setting": "[1]; human, plasma, oral, single 240-mg dose, tablet, healthy subjects, read-out: median Tmax", "result": "2 to 3", "unit": "h"}, {"measurement": "Fabs", "setting": "[1]; single dose 240 mg", "result": 1.11}, {"measurement": "testosterone and luteinizing hormone (LH)", "setting": "[2]; healthy men, 240 mg", "result": "transient increase"}, {"measurement": "TSH", "setting": "[2]; healthy men, single dose 240 mg", "result": "Reversible mild increases"}, {"measurement": "tolerability of single doses up to 240 mg", "setting": "[2]; human, in vivo", "result": "well tolerated"}, {"measurement": "tumor regression", "setting": "[3]", "result": "partial or complete tumor regression"}, {"measurement": "tolerability", "setting": "CRPC; 240 mg continuous daily dosing", "result": "very well tolerated"}, {"measurement": "median time to PSA progression", "setting": "CRPC; PA cohort", "result": 16, "unit": "weeks"}, {"measurement": "median time to PSA progression", "setting": "CRPC; TN cohort, preliminary 12-week period", "result": "not reached"}, {"measurement": "objective response rate (by RECIST)", "setting": "CRPC; TN patients with measurable disease at baseline", "result": 63, "unit": "%"}, {"measurement": "patients with >50% decline in PSA as compared to baseline", "setting": "CRPC; non-metastatic CRPC, 12 weeks", "result": 91, "unit": "%"}, {"measurement": "patients with >50% decline in PSA", "setting": "CRPC; non-metastatic CRPC, 24 weeks", "result": 91, "unit": "%"}, {"measurement": "patients with >90% decline in PSA", "setting": "CRPC; non-metastatic CRPC, 24 weeks", "result": 55, "unit": "%"}, {"measurement": "median time to PSA progression", "setting": "CRPC; non-metastatic CRPC, observed time period", "result": "not reached"}, {"measurement": "patients with 12-week PSA declines of >50% or more from baseline", "setting": "CRPC; post-abiraterone (PA) metastatic CRPC cohort", "result": 29, "unit": "%"}, {"measurement": "patients with 12-week PSA declines of >50% or more from baseline", "setting": "CRPC; treatment-naive (TN) metastatic CRPC cohort", "result": 88, "unit": "%"}, {"measurement": "subjects with documented PSA progression", "setting": "high-risk nmCRPC; 192 subjects", "result": 24, "unit": "%"}, {"measurement": "arthralgia", "setting": "high-risk nmCRPC; TEAE incidence", "result": 16, "unit": "%"}, {"measurement": "diarrhea", "setting": "high-risk nmCRPC; TEAE incidence", "result": 20, "unit": "%"}, {"measurement": "fatigue", "setting": "high-risk nmCRPC; TEAE incidence", "result": 30, "unit": "%"}, {"measurement": "hypertension", "setting": "high-risk nmCRPC; TEAE incidence", "result": 25, "unit": "%"}, {"measurement": "nausea", "setting": "high-risk nmCRPC; TEAE incidence", "result": 18, "unit": "%"}, {"measurement": "weight decreased", "setting": "high-risk nmCRPC; TEAE incidence", "result": 16, "unit": "%"}, {"measurement": "fall", "setting": "high-risk nmCRPC; TEAE incidence, all grades", "result": 16, "unit": "%"}, {"measurement": "skin rash (grouped term)", "setting": "high-risk nmCRPC; TEAE incidence, all grades", "result": 24, "unit": "%"}, {"measurement": "fracture", "setting": "high-risk nmCRPC; all grades", "result": 12, "unit": "%"}, {"measurement": "hypothyroidism", "setting": "high-risk nmCRPC; all grades", "result": 8.1, "unit": "%"}, {"measurement": "seizure", "setting": "high-risk nmCRPC; all grades", "result": 0.2, "unit": "%"}, {"measurement": "Grade 3 skin rashes", "setting": "high-risk nmCRPC; in vivo", "result": 5.2, "unit": "%"}, {"measurement": "decrease of risk of PSA progression compared with placebo", "setting": "high-risk nmCRPC; in vivo", "result": 94, "unit": "%"}, {"measurement": "incidence of AEs of special interest", "setting": "high-risk nmCRPC; in vivo", "result": 42, "unit": "%"}, {"measurement": "longer median metastasis-free survival over placebo", "setting": "high-risk nmCRPC; in vivo", "result": 2, "unit": "years"}, {"measurement": "lower limit of the 95% CI for the median time to PSA progression", "setting": "high-risk nmCRPC; in vivo", "result": 36.8, "unit": "months"}, {"measurement": "median time to PSA progression", "setting": "high-risk nmCRPC; in vivo", "result": "not estimable"}, {"measurement": "subjects who discontinued treatment due to TEAEs", "setting": "high-risk nmCRPC; in vivo", "result": 11, "unit": "%"}, {"measurement": "subjects with Grade 3-4 TEAEs", "setting": "high-risk nmCRPC; in vivo", "result": 45, "unit": "%"}, {"measurement": "subjects with serious adverse events (SAEs)", "setting": "high-risk nmCRPC; in vivo", "result": 25, "unit": "%"}, {"measurement": "subjects with treatment-emergent adverse events", "setting": "high-risk nmCRPC; in vivo", "result": 97, "unit": "%"}, {"measurement": "total PSA response (confirmed and unconfirmed)", "setting": "high-risk nmCRPC; in vivo", "result": 93, "unit": "%"}, {"measurement": "confirmed prostate-specific antigen (PSA) response", "setting": "high-risk nmCRPC; subjects in apalutamide arm", "result": 90, "unit": "%"}, {"measurement": "HR for PSA progression", "setting": "high-risk nmCRPC; vs placebo, 95% CI: 0.052, 0.080", "result": 0.064}, {"measurement": "14C-radioactivity excreted via feces (arithmetic mean)", "setting": "[4]", "result": 24.3, "unit": "%"}, {"measurement": "total 14C-radioactivity excreted in urine (arithmetic mean)", "setting": "[4]", "result": 64.2, "unit": "%"}, {"measurement": "total administered 14C-radioactive dose recovered", "setting": "[4]", "result": 88.9, "unit": "%"}, {"measurement": "AUC0-72h Intra-subject CV(%)", "setting": "[5]", "result": 3.7, "unit": "%"}, {"measurement": "AUC0-168h Intra-subject CV(%)", "setting": "[5]", "result": 2.7, "unit": "%"}, {"measurement": "Cmax Intra-subject CV(%)", "setting": "[5]", "result": 13.8, "unit": "%"}, {"measurement": "Biopharmaceutics Classification System class", "setting": "[6]", "result": "Class II"}]}
